Patent publication US20100312139A1, “Method for Identifying Mammals at Risk for Elevated intracranial Pressure” (BOARD OF REGENTS OF THE UNIVERSITY OF TEXAS SYSTEM, priority 2009, published 2010)

Tested on: TBI-associated cerebral edema, controlled cortical impact model
Assay: Cerebral edema as percentage brain water content (wet-dry method) after controlled cortical impact brain injury
Type: in vivo
Conditions: rat, 400 mg/kg administered 30 minutes after cortical impact injury, measured 24 hr after injury, versus control animals
Description: A number of studies have reported that blood-brain barrier compromise and cerebral edema are key contributors to the elevation of ICP. Penicillamine is a copper scavenger that is FDA approved for the treatment of Wilson's disease. Therefore penicillamine was used in this study to determine if sequestration of copper would restore TBI-associated BBB permeability and cerebral edema. […] BBB permeability was assessed by measuring the extravasation of Evans Blue dye as described in Zhao, et al., 2007 (Zhao, J., Moore, A. N., Redell, J. B. and Dash, P. K. 2007. Enhancing expression of Nrf2-driven genes protects the blood brain barrier after brain injury. J. Neurosci. 27, 10240-10248).
Cerebral edema was assessed by determining the percentage brain water content using the wet-dry method as described previously (McIntosh, T. K., Soares, H., Thomas, M. and Cloherty, K. 1990. Development of regional cerebral oedema after lateral fluid-percussion brain injury in the rat. Acta Neurochir. Suppl (Wien.) 51, 263-264; Shohami, E., Novikov, M. and Mechoulam, R. 1993. A nonpsychotropic cannabinoid, HU-211, has cerebroprotective effects after closed head injury in the rat. J. Neurotrauma 10, 109-119). BBB permeability and cerebral edema were measured 24 hr after injury, in independent sets of animals.

CC(C)(S)[C@@H](N)C(=O)O [penicillamine, Penicillamine]
effect on cerebral edema (percentage brain water content): did not have any effect
